Assay: Inhibition of pTACE

Compound | IC50
Cc1cc(COc2ccc(C(=O)Nc3ccccc3C(=O)c3c[nH]c(=O)[nH]3)cc2)c2ccccc2n1 [4-((2-methylquinolin-4-yl)methoxy)-N-(2-(2-oxo-2,3-dihydro-1H-imidazole-5-carbonyl)phenyl)benzamide] | 9 nM
Cc1cc(COc2ccc(C(=O)Nc3ccccc3Cc3c[nH]c(=O)[nH]3)cc2)c2ccccc2n1 [4-((2-methylquinolin-4-yl)methoxy)-N-(2-((2-oxo-2,3-dihydro-1H-imidazol-5-yl)methyl)phenyl)benzamide] | 1600 nM
Cc1cc(COc2ccc(C(=O)Nc3ccccc3Cc3n[nH]c(=O)[nH]3)cc2)c2ccccc2n1 [4-((2-methylquinolin-4-yl)methoxy)-N-(2-((5-oxo-4,5-dihydro-1H-1,2,4-triazol-3-yl)methyl)phenyl)benzamide] | 34 nM
Cc1cc(COc2ccc(C(=O)NCc3n[nH]c(=O)[nH]3)cc2)c2ccccc2n1 [4-((2-methylquinolin-4-yl)methoxy)-N-((5-oxo-4,5-dihydro-1H-1,2,4-triazol-3-yl)methyl)benzamide] | > 1000 nM
Cc1cc(COc2ccc(S(=O)(=O)NCc3n[nH]c(=O)[nH]3)cc2)c2ccccc2n1 [4-((2-methylquinolin-4-yl)methoxy)-N-((5-oxo-4,5-dihydro-1H-1,2,4-triazol-3-yl)methyl)benzenesulfonamide] | 439 nM
Cc1cc(COc2ccc(C(=O)Nc3ccccc3-c3[nH]c(=O)[nH]c3O)cc2)c2ccccc2n1 [N-(2-(2,5-dioxoimidazolidin-4-yl)phenyl)-4-((2-methylquinolin-4-yl)methoxy)benzamide] | 14 nM
Cc1cc(COc2ccc(C(=O)NCC3(C)NC(=O)NC3=O)cc2)c2ccccc2n1 (stereo not drawn) [N-((4-methyl-2,5-dioxoimidazolidin-4-yl)methyl)-4-((2-methylquinolin-4-yl)methoxy)benzamide] | 29 nM
Cc1cc(COc2ccc(S(=O)(=O)NCC3(C)NC(=O)NC3=O)cc2)c2ccccc2n1 (stereo not drawn) [N-((4-methyl-2,5-dioxoimidazolidin-4-yl)methyl)-4-((2-methylquinolin-4-yl)methoxy)benzenesulfonamide] | 37 nM

Source: BindingDB's records for doi:10.1016/j.bmcl.2007.02.076 (Bristol-Myers Squibb Pharmaceutical Research Institute, 2007)
